Measurements: patent publication US10597388B2, “Pyridazinone herbicides” (FMC CORPORATION, priority 2014, dated 2020)

Legend:
Test in all cases: Test E greenhouse herbicide test, pre- and postemergence
Type in all cases: in vivo
corn (Zea mays) = test system: corn (Zea mays)
In short: (§1)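 Visual ratings, 0 for no effect up to 100 for complete control, were taken relative to controls 14 to 21 d after greenhouse treatment. Applications used a surfactant-containing non-phytotoxic solvent formulation, sprayed either preemergence on silt loam-sown seed or postemergence on 1- to 4-leaf plants 2-18 cm tall in peat-based potting medium.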

[1] = test system: beggarticks (hairy beggarticks, Bidens pilosa)
In short: as §1

[2] = test system: goosegrass (Eleusine indica); settings: Preemergence
In short: as §1

[3] = test system: wild poinsettia (Euphorbia heterophylla)
In short: as §1

[4] = test system: barnyardgrass (Echinochloa crus-galli)
In short: as §1

[5] = test system: Italian ryegrass (Lolium multiflorum)
In short: as §1

[6] = test system: surinam grass (Brachiaria decumbens); settings: Preemergence
In short: as §1

[7] = test system: field bindweed (Convolvulus arvensis)
In short: as §1

[8] = test system: crabgrass, large (large crabgrass, Digitaria sanguinalis); settings: Preemergence
In short: as §1

[9] = test system: momingglory (Ipomoea coccinea); settings: Preemergence
In short: as §1

[10] = test system: dayflower (Virginia (VA) dayflower, Commelina virginica)
In short: as §1

[11] = test system: panicum, fall (fall panicum, Panicum dichotomiflorum)
In short: as §1

[12] = test system: nightshade (eastern black nightshade, Solanum ptycanthum); settings: Preemergence
In short: as §1

[13] = 62 g ai/ha, Postemergence, scale 0 to 100 (0 no effect, 100 complete control)
[14] = 62 g ai/ha, Preemergence, scale 0 to 100 (0 no effect, 100 complete control)
[15] = 125 g ai/ha, Postemergence, scale 0 to 100 (0 no effect, 100 complete control)
[16] = 250 g ai/ha, Postemergence, scale 0 to 100 (0 no effect, 100 complete control)
[17] = Postemergence, 16 g ai/ha, visual, scale 0 no effect to 100 complete control
[18] = Postemergence, 31 g ai/ha, visual, scale 0 no effect to 100 complete control
[19] = Preemergence, 16 g ai/ha, scale 0 to 100, 0 no effect, 100 complete control
[20] = Preemergence, 31 g ai/ha, scale 0 to 100, 0 no effect, 100 complete control
[21] = Preemergence, 125 g ai/ha, visual, scale 0 no effect to 100 complete control
[22] = Preemergence, 250 g ai/ha, visual, scale 0 no effect to 100 complete control
[23] = 62 g ai/ha, scale 0 to 100 (0 no effect, 100 complete control)
[24] = 16 g ai/ha, scale 0 to 100, 0 no effect, 100 complete control
[25] = 31 g ai/ha, scale 0 to 100, 0 no effect, 100 complete control
[26] = 125 g ai/ha, visual, scale 0 no effect to 100 complete control
[27] = 250 g ai/ha, visual, scale 0 no effect to 100 complete control
[28] = 125 g ai/ha, Preemergence, scale 0 to 100 (0 no effect, 100 complete control)
[29] = 125 g ai/ha, scale 0 to 100 (0 no effect, 100 complete control)

Cc1ccc2sc(C)c(-c3c(O)c(C)nn(C)c3=O)c2c1 [Compound 1, 4-(2,5-dimethylbenzo[b]thien-3-yl)-5-hydroxy-2,6-dimethyl-3(2H)-pyridazinone]
95: Plant response rating, Ryegrass, Italian [5, 20] | Plant response rating, Field Bindweed [7, 16] | Plant response rating, Field Bindweed [7, 21] | Plant response rating, Panicum, Fall [11, 28] | Plant response rating, Nightshade [12, 23]
15: Plant response rating, Goosegrass [2, 25] | Plant response rating, Poinsettia, Wild [3, 13] | Plant response rating, Poinsettia, Wild [3, 15] | Plant response rating, Barnyardgrass [4, 18] | Plant response rating, Dayflower, VA [10, 21]
50: Plant response rating, Ryegrass, Italian [5, 13] | Plant response rating, Surinam Grass [6, 23] | Plant response rating, Dayflower, VA [10, 16]
80: Plant response rating, Surinam Grass [6, 29] | Plant response rating, Field Bindweed [7, 14] | Plant response rating, Panicum, Fall [11, 15] | Plant response rating, Nightshade [12, 24]
100: Plant response rating, Beggarticks [1, 14] | Plant response rating, Beggarticks [1, 15] | Plant response rating, Beggarticks [1, 16] | Plant response rating, Beggarticks [1, 19] | Plant response rating, Beggarticks [1, 20] | Plant response rating, Beggarticks [1, 21] | Plant response rating, Beggarticks [1, 22] | Plant response rating, Ryegrass, Italian [5, 14] | Plant response rating, Ryegrass, Italian [5, 28] | Plant response rating, Ryegrass, Italian [5, 22] | Plant response rating, Field Bindweed [7, 22] | Plant response rating, Morningglory [9, 27] | Plant response rating, Panicum, Fall [11, 22] | Plant response rating, Nightshade [12, 29] | Plant response rating, Nightshade [12, 27]
35: Plant response rating, Goosegrass [2, 26] | Plant response rating, Poinsettia, Wild [3, 16] | Plant response rating, Poinsettia, Wild [3, 22] | Plant response rating, Barnyardgrass [4, 16] | Plant response rating, Ryegrass, Italian [5, 18] | Plant response rating, Crabgrass, Large [8, 26]
0: Plant response rating, Corn (corn (Zea mays); [14]) | Plant response rating, Corn (corn (Zea mays); [17]) | Plant response rating, Corn (corn (Zea mays); [19]) | Plant response rating, Corn (corn (Zea mays); [20]) | Plant response rating, Corn (corn (Zea mays); [21]) | Plant response rating, Corn (corn (Zea mays); [22]) | Plant response rating, Goosegrass [2, 24] | Plant response rating, Barnyardgrass [4, 14] | Plant response rating, Barnyardgrass [4, 19] | Plant response rating, Barnyardgrass [4, 20] | Plant response rating, Barnyardgrass [4, 21] | Plant response rating, Surinam Grass [6, 24] | Plant response rating, Crabgrass, Large [8, 24] | Plant response rating, Crabgrass, Large [8, 25] | Plant response rating, Dayflower, VA [10, 13] | Plant response rating, Dayflower, VA [10, 17] | Plant response rating, Dayflower, VA [10, 18] | Plant response rating, Dayflower, VA [10, 19] | Plant response rating, Dayflower, VA [10, 20]
75: Plant response rating, Surinam Grass [6, 27] | Plant response rating, Panicum, Fall [11, 13] | Plant response rating, Panicum, Fall [11, 18] | Plant response rating, Panicum, Fall [11, 20]
98: Plant response rating, Beggarticks [1, 13] | Plant response rating, Morningglory [9, 23]
30: Plant response rating, Poinsettia, Wild [3, 14] | Plant response rating, Poinsettia, Wild [3, 28] | Plant response rating, Poinsettia, Wild [3, 20] | Plant response rating, Dayflower, VA [10, 15]
65: Plant response rating, Ryegrass, Italian [5, 15] | Plant response rating, Field Bindweed [7, 17] | Plant response rating, Field Bindweed [7, 18] | Plant response rating, Crabgrass, Large [8, 27] | Plant response rating, Panicum, Fall [11, 19]
60: Plant response rating, Morningglory [9, 25]
20: Plant response rating, Poinsettia, Wild [3, 19] | Plant response rating, Barnyardgrass [4, 13] | Plant response rating, Barnyardgrass [4, 22] | Plant response rating, Ryegrass, Italian [5, 17] | Plant response rating, Field Bindweed [7, 20] | Plant response rating, Crabgrass, Large [8, 23] | Plant response rating, Morningglory [9, 24] | Plant response rating, Dayflower, VA [10, 14]
25: Plant response rating, Goosegrass [2, 27] | Plant response rating, Barnyardgrass [4, 15] | Plant response rating, Surinam Grass [6, 25] | Plant response rating, Dayflower, VA [10, 22]
90: Plant response rating, Ryegrass, Italian [5, 16] | Plant response rating, Morningglory [9, 29] | Plant response rating, Panicum, Fall [11, 14] | Plant response rating, Nightshade [12, 25]
85: Plant response rating, Beggarticks [1, 18] | Plant response rating, Field Bindweed [7, 15] | Plant response rating, Panicum, Fall [11, 16]
70: Plant response rating, Beggarticks [1, 17] | Plant response rating, Ryegrass, Italian [5, 19] | Plant response rating, Field Bindweed [7, 13] | Plant response rating, Panicum, Fall [11, 17]
10: Plant response rating, Poinsettia, Wild [3, 18] | Plant response rating, Barnyardgrass [4, 17]
5: Plant response rating, Corn (corn (Zea mays); [13]) | Plant response rating, Corn (corn (Zea mays); [15]) | Plant response rating, Corn (corn (Zea mays); [16]) | Plant response rating, Corn (corn (Zea mays); [18]) | Plant response rating, Goosegrass [2, 23] | Plant response rating, Poinsettia, Wild [3, 17] | Plant response rating, Field Bindweed [7, 19]
